Reference: BindingDB's records for doi:10.1021/jm010468s (Pfizer, 2002)
Non-standard residues stand in square brackets, D forms with d. Residues, ends and D or L forms follow the SMILES beside them. Trp(6-Cl) = N[C@@H](Cc1c[nH]c2cc(Cl)ccc12)C(=O)O; Pmp = N[C@@H](Cc1ccc(CP(=O)(O)O)cc1)C(=O)O; Ac3c = NC1(C(=O)O)CC1; Aib = CC(C)(N)C(=O)O

Assay: Inhibition of p53 binding to […] (hdm2-GST)

Q: For `CSCC[C@H](NC(=O)[C@H](Cc1ccccc1)NC(C)=O)C(=O)NC(C)(C)C(=O)N[C@@H](Cc1ccc(CP(=O)(O)O)cc1)C(=O)N[C@@H](Cc1c[nH]c2cc(Cl)ccc12)C(=O)N[C@@H](CCC(=O)O)C(=O)NC1(C(=O)N[C@@H](CC(C)C)C(N)=O)CC1` [Ac-Phe-Met-Aib-Pmp-6-Cl-Trp-Glu-Ac3c-Leu-NH2, GST-hdm2 binding peptide] (Ac-FM[Aib][Pmp][Trp(6-Cl)]E[Ac3c]L-NH2), which IC50 is on record?
A: 5 nM
